# Reference: a melting point compilation (Tetko et al.; mined from patent text by program, amines drawn as free bases though some values may be those of a salt)
row,Compound,melting point
1,CCOC(=O)[C@H]1CC[C@@H](c2ccccc2)N1C(=O)CNC(=O)Nc1cccc(C)c1 (racemic),115 °C
2,CC(C)(C)[Si](C)(C)Oc1ccccc1-c1cc(-c2cccc([N+](=O)[O-])c2)c(C#N)c(NC(=O)c2cccs2)n1,106 to 108 °C
3,CCC(Oc1ccc(Cl)c(C)c1)C(=O)NCc1ccco1 (centres undefined),100 to 102 °C
4,CN1Cc2ccc(NC(=O)N[C@@H]3c4cc(C#N)ccc4OC(C)(C)[C@H]3O)cc2C1,220 to 222 °C
5,CN(C)CCCn1nc2c(c1-c1ccccc1)CCc1ccccc1-2,60 to 62 °C
6,Cc1cc(-c2cccnc2)n2ncnc2n1,183 to 185 °C
7,O=C1CCN(CC(c2ccccc2)c2ccccc2)CC1C1(O)CCN(CC(c2ccccc2)c2ccccc2)CC1 (centres undefined),125 to 127 °C
8,CN(C)C=CC(=O)c1ccc(OC[C@H]2CO[C@](Cn3ccnc3)(c3ccc(Cl)cc3Cl)O2)cc1 (relative stereo),145 °C
9,C[Si](C)(C)C#Cc1cnn2c(C(F)(F)F)cc(-c3ccc(Cl)cc3)nc12,198 °C
10,COc1ccc(-c2ccc(=O)[nH]n2)c(OCC(O)CNC(C)(C)C)c1 (centres undefined),159 to 161 °C
11,Cc1[nH]c(=O)ccc1-c1ccc(O)c([N+](=O)[O-])c1,260 to 262 °C
12,CCOC(=O)CN(C)S(=O)(=O)c1c(C(=O)OC)sc2cc(C)ccc12,86 to 87 °C
13,Oc1ccc2c(c1)CC(NCC(O)c1cccc(Cl)c1)CC2 (centres undefined),175 °C
14,CCOC(=O)C1=C(COCc2nnn[nH]2)NC(C)=C(C(=O)OC)C1c1ccccc1Cl (centres undefined),122 to 124 °C
15,CCCCC(CC)COC(=O)c1cc(CN(CC(=O)O)CC(=O)O)c(O)c(CN(CC(=O)O)CC(=O)O)c1 (centres undefined),133 to 141 °C
16,COc1cnc(Cl)nc1NS(=O)(=O)c1cccc(Cl)c1Cl,244 to 245 °C
17,C/C=C/Cn1c(Cc2cc(C)cc(C)c2)c(CC)c(=O)[nH]c1=O,145 to 146 °C
18,O=C(NC1N=C(c2ccccc2F)c2ccccc2NC1=O)c1cc2ccccc2[nH]1 (racemic),290 to 291 °C
19,Fc1cc(CC2(Cc3ccncc3)c3ccccc3-c3sccc32)ccn1 (centres undefined),117 to 119 °C
20,CCCC(C)n1sc2ccccc2c1=O (centres undefined),52 to 54 °C
21,CC1(C)CN(Cc2cc3ncccc3o2)c2nc(-c3ccncc3)cc(=O)n2C1,170 to 171 °C
22,Cc1cccc(C(=O)Nc2ccc(N3CCN(Cc4ccc[nH]4)CC3)nc2)c1-c1ccc(C(C)C)cc1,130 °C
23,CCC(=O)Nc1ccc2nc(C(=O)NCc3cccc(OC)c3)[nH]c(=O)c2c1,222 to 223 °C

row,Compound,melting point
1,C[Si](C)(C)CCCCCC1=C(O)C(=O)c2ccccc2C1=O,73 to 75 °C
2,CCCCC(=O)c1cc(C(=O)O)c2cc(Cc3ccc(F)cc3)cnc2c1O,227 to 229 °C
3,Cc1c(CO)ncn1C(c1ccccc1)(c1ccccc1)c1ccccc1,255 to 260 °C
4,Cc1c(CC=CNC(=O)Nc2ccccc2)[nH]c(=O)c2c1ccc1nc(Nc3c(Cl)cccc3Cl)n(C)c12,> 290 °C
5,CN(O)C(=O)N1CCC(C(c2ccccc2)c2ccccc2)CC1,143 to 144 °C
6,Cc1nc(-n2cccc(C(=O)Nc3ccccc3)c2=O)sc1C(=O)NCc1ccccc1,225 to 227 °C
7,Cc1nccc2c3ccc(O)cc3n(Cc3ccccc3)c12,234 °C
8,N#Cc1ccc(CC23CCCN2C(=O)N(c2cc(Cl)cc(Cl)c2N)C3=O)cc1 (centres undefined),122 °C
9,COc1ccc(-c2nn(CC=Cc3ccc(F)cc3F)c(=O)cc2-c2ccncc2)cc1,55.4 to 56.9 °C
10,CS(=O)c1ccc(OCc2ccccc2)c(C=O)c1 (centres undefined),103 to 104 °C
11,CCNC1c2cc(S(N)(=O)=O)oc2SCC1(C)C (centres undefined),147 °C
12,O=c1[nH]nc(-c2cccc([N+](=O)[O-])c2)c2ncccc12,302 °C
13,Cc1cc(C)cc(Oc2cc(Br)cc(S(=O)(=O)N3CCN(C(=O)OC(C)(C)C)CC3)c2)c1,155 °C
14,O=c1c(CCc2ccncc2)cc2cccnc2n1-c1cccc([N+](=O)[O-])c1,213 to 214 °C
15,O=c1n(CCC#Cc2ccccn2)nc2ccccn12,95.5 to 96 °C
16,CC(C)(C(=O)O)c1ccc2cc(OCc3ccc4ccccc4n3)ccc2c1,207 to 209 °C
17,CCCCOC(=O)C1CC2CC(CP(=O)(O)O)CCC2CN1 (centres undefined),161 to 169 °C
18,COc1cc(COc2cc(C=O)n(-c3ccccc3)n2)ccc1OCc1nc(-c2ccco2)oc1C,103 to 104 °C
19,CN=C(NC#N)Nc1ccc2c(c1)CCC1CC(=O)NN=C21 (centres undefined),289 °C
20,CC(C)c1nc(Cl)nc(-c2ccc(F)cc2)c1Br,99 to 101 °C
21,COc1ccc2c(c1)c(SC(C)C)c(C(N)=O)n2C,122 to 124 °C
22,Cc1c(Cl)cccc1N1CCN(CCc2nn(Cc3c[nH]cn3)c3cc4c(cc23)OCO4)CC1,176 to 177 °C
23,O=c1cc2sc3ccccc3nc-2c2ccccc12,176 to 177 °C

row,Compound,melting point
1,CC(C)CC1(C)C(=O)N(Cc2ccccc2)CCN1Cc1ccccc1 (centres undefined),98 to 101 °C
2,C1=CCC2=C3C(=NC2=C1)SCCC3CNCc1ccccc1 (centres undefined),118 °C
3,CNCC1CN(c2c(F)cc3c(=O)c(C(=O)O)cn(C4CC4)c3c2Cl)CC1C (centres undefined),253 to 255 °C
4,O=C(Nc1ccc2ccc(Cl)nc2n1)c1cscn1,325 °C
5,CC(C)(CO)CCCCCCCCCCCC(C)(C)CO,45 to 47 °C
6,C[C@H](NC(=O)c1c[nH]c2ncc(-c3cn(-c4cc(Cl)ccc4F)cn3)nc12)C(C)(C)C,337 to 339 °C
7,CC(=O)NC[C@H]1CN(c2ccc(N3CCC(=C(C#N)c4cccs4)CC3)c(F)c2)C(=O)O1,260 to 263 °C
8,Cc1cccc(C)c1NC(=O)c1ccc([N+](=O)[O-])cc1,212 to 215 °C
9,CCNCc1nc(-c2ncn3c2CN(C)C(=O)c2cc(F)ccc2-3)no1,166 to 168 °C
10,N#Cc1c(Br)c(Br)n(C(=O)c2ccc(Cl)cc2)c1Br,154 to 157 °C
11,S=C(Cc1ccc(Oc2ccc(I)cc2)cc1)N1CCOCC1,123 to 127 °C
12,O=C1C2CC(c3ccc([N+](=O)[O-])cc3)(C2)C(=O)N1C1CCCCC1,163 to 164 °C
13,O=C1Nc2cccc(O)c2C12COc1cc3c(cc12)OCCO3 (centres undefined),> 250 °C
14,FC(F)(F)c1ccc(-c2nc(Cl)cc(-c3ccccc3)n2)cc1,82 to 84 °C
15,O=C(NCCCBr)c1cnccc1C(F)(F)F,61 to 63 °C
16,CC1(C)C2CC[C@]1(C)C(=O)C(C(=O)Nc1cccc(C(F)(F)F)c1)C2=O (some centres undefined),60 to 62 °C
17,O=C(O)Cc1cc(C(=O)c2cccc(F)c2)ccc1O,171 °C
18,COCn1ncc2cc(-c3nnc(SCc4cccc(C(F)(F)F)c4)o3)ccc21,159 to 160 °C
19,Cn1ncnc1COc1nn2c(-c3ccccc3F)nncc2c1-c1cc(F)cc(F)c1,171 to 173 °C
20,C=CCN(CCC)C1COc2cccc(O)c2C1 (centres undefined),78 to 80 °C
21,O=C(c1cccs1)c1cccc2cc[nH]c12,129 to 130 °C
22,CCOC(=O)Nc1ccc(OCc2ccc(Cl)nc2)cc1F,139 °C
23,Nc1cccc(-c2ccc(CCN(CC3CCCCC3)CC3CCCCC3)cc2)n1,75 to 85 °C
